Measurements as given in ChEMBL document CHEMBL1147819, “Synthesis of 2-alkoxy-8-hydroxyadenylpeptides: towards synthetic epitope-based vaccines” (Bioorg Med Chem Lett, 2006).
The source made the active and inactive calls. The rule behind the calls is not given here. Residues, ends and D or L forms follow the SMILES beside them. *: point of attachment. X2 = C[C@H](N*)C(=O)N(C(=O)c1cn(CCOCCOCCOc2nc(N)c3nc(O)n(Cc4ccccc4)c3n2)nn1)[C@@H](CCCCN)C(N)=O; X1 = Nc1nc(OCCOCCOCCn2cc(C(=O)*)nn2)nc2c1nc(O)n2Cc1ccccc1

Columns and labels:
Format in all cases: functional, cell-based
Conditions in all cases: Homo sapiens
Dendritic cell [1] = assay: Induction of antigen presentation in dendritic cells
Dendritic cell [2] = assay: Inhibition of antigen presentation in dendritic cells
Dendritic cell [3] = assay: Induction of IL-12p40 in dendritic cells

Row | Structure (SMILES) | Activity (Dendritic cell [1]) | Activity (Dendritic cell [2]) | Activity (Dendritic cell [3])
1 | CC[C@H](C)[C@H](NC(=O)[C@H](CO)NC(=O)[C@H](CCC(=O)O)NC(=O)[C@H](CC(C)C)NC(=O)[C@H](CCC(N)=O)NC(=O)[C@H](CCC(=O)O)NC(=O)[C@H](CC(C)C)NC(=O)CNC(=O)[C@H](CO)NC(=O)[C@@H](NC(=O)[C@H](CCC(=O)O)NC(=O)[C@H](CC(=O)O)NC(=O)c1cn(CCOCCOCCOc2nc(N)c3nc(O)n(Cc4ccccc4)c3n2)nn1)C(C)C)C(=O)N[C@H](C(=O)N[C@@H](CC(N)=O)C(=O)N[C@@H](Cc1ccccc1)C(=O)N[C@@H](CCC(=O)O)C(=O)N[C@@H](CCCCN)C(=O)N[C@@H](CC(C)C)C(=O)O)[C@@H](C)CC (X1-DEVSGLEQLESIINFEKL-OH) | Active | Active | –
2 | CC[C@H](C)[C@H](NC(=O)[C@H](CO)NC(=O)[C@H](CCC(=O)O)NC(=O)[C@H](CC(C)C)NC(=O)[C@H](CCC(N)=O)NC(=O)[C@H](CCC(=O)O)NC(=O)[C@H](CC(C)C)NC(=O)CNC(=O)[C@H](CO)NC(=O)[C@@H](NC(=O)[C@H](CCC(=O)O)NC(=O)[C@@H](N)CC(=O)O)C(C)C)C(=O)N[C@H](C(=O)N[C@@H](CC(N)=O)C(=O)N[C@@H](Cc1ccccc1)C(=O)N[C@@H](CCC(=O)O)C(=O)N[C@@H](CCCCN)C(=O)N[C@@H](CC(C)C)C(=O)N[C@@H](C)C(=O)N[C@@H](C)C(=O)N[C@@H](C)C(=O)N[C@@H](C)C(=O)N[C@@H](C)C(=O)N(C(=O)c1cn(CCOCCOCCOc2nc(N)c3nc(O)n(Cc4ccccc4)c3n2)nn1)[C@@H](CCCCN)C(N)=O)[C@@H](C)CC (H-DEVSGLEQLESIINFEKLAAAA-X2) | Active | Active | –
3 | [N-]=[N+]=NCCOCCOCCOc1nc(N)c2[nH]c(=O)n(Cc3ccccc3)c2n1 | – | – | Active
4 | COCCOc1nc(N)c2[nH]c(=O)n(Cc3ccccc3)c2n1 | – | – | Active
5 | CC[C@H](C)[C@H](NC(=O)[C@H](CO)NC(=O)[C@H](CCC(=O)O)NC(=O)[C@H](CC(C)C)NC(=O)[C@H](CCC(N)=O)NC(=O)[C@H](CCC(=O)O)NC(=O)[C@H](CC(C)C)NC(=O)CNC(=O)[C@H](CO)NC(=O)[C@@H](NC(=O)[C@H](CCC(=O)O)NC(=O)[C@H](CC(=O)O)NC(=O)c1cn(CCOCCOCCOc2nc(N)c3nc(O)n(Cc4ccccc4)c3n2)nn1)C(C)C)C(=O)N[C@H](C(=O)N[C@@H](CC(N)=O)C(=O)N[C@@H](Cc1ccccc1)C(=O)N[C@@H](CCC(=O)O)C(=O)N[C@@H](CCCCN)C(=O)N[C@@H](CC(C)C)C(=O)N[C@@H](C)C(=O)N[C@@H](C)C(=O)N[C@@H](C)C(=O)N[C@@H](C)C(=O)N[C@@H](C)C(=O)N[C@@H](CCCCN)C(N)=O)[C@@H](C)CC (X1-DEVSGLEQLESIINFEKLAAAAAK-NH2) | Active | Active | –
